Patent US5798392A, “Sulfonyl fluorides for the treatment of Alzheimer's disease” (The Board of Regents of the University of Texas System, priority 1996, dated 1998)
“Also recorded” adds a separate entry of the source.

How the values were obtained:
[1] = molecular target: T1, erythrocyte acetylcholinesterase (Homo sapiens, UniProt P22303); assay: Erythrocyte acetylcholinesterase substrate kinetics; assay type: biochemical
[2] = molecular target: T1, erythrocyte acetylcholinesterase; assay: Erythrocyte acetylcholinesterase inhibition in blood after oral dosing of humans (Ellman assay); assay type: in vivo
[3] = molecular target: plasma butyrylcholinesterase (Homo sapiens, UniProt P06276); assay: Plasma butyrylcholinesterase inhibition in blood after oral dosing (Experiment I); assay type: in vivo; details: oral doses
[4] = tested on: patients suffering from SDAT; assay: ADAS-COG cognitive performance, Experiment III double blind crossover; assay type: in vivo, human
[5] = tested on: patients suffering from SDAT; assay: Mini Mental State Exam, Experiment III double blind crossover; assay type: in vivo, human; details: p<0.01 one-tailed, paired t-test and Wilcoxon
[6] = tested on: patients suffering from SDAT; assay: Clinical Interview Based Impression of Change (CIBIC), Experiment III; assay type: in vivo, human; details: end of 16 week protocol; baseline 4.0; p<0.01 t-test one-tailed; spread SD
[7] = tested on: patients suffering from SDAT; assay: Global Deterioration Scale, Experiment III; assay type: in vivo, human
[8] = tested on: brain acetylcholinesterase; assay: Brain acetylcholinesterase inhibition in rodents and monkeys; parameters: species or system rodent and monkey; details: monkey, in vivo
rats and monkeys = assay: Pharmacological activity after intramuscular injection in oil vehicle; assay type: in vivo; details: i.m., sterile oil vehicle
acetylcholinesterase [9] = assay: Reaction with acetylcholinesterase in brain membranes in vitro; assay type: biochemical; details: solubilized in brain membranes, after removal from aqueous environment
acetylcholinesterase [10] = details: cited from earlier work
animal memory = details: minimum of 50% inhibition; without toxicity; cited from earlier work
[11] = tested on: brain acetylcholinesterase; details: rodent and monkey brain; accumulated, small doses over a long period of time; up to; cited from earlier work
[12] = Chemical stability and solubility
[13] = Concentration in peripheral blood; details: in vivo
[14] = Experiment III, safety in patients suffering from SDAT
[15] = Experiment II, Phase I tolerability in 10 normal subjects
[16] = Experiment I, side effects and clinical blood analyses in one normal volunteer; details: 0.016-0.22 mg/kg oral
SDAT patients = details: cited from earlier work
[17] = Prior tacrine treatment of two patients
[18] = acetyl-β-methylthiocholine substrate, pH 7.4, 25° C

T1 sequence (P22303 32-574): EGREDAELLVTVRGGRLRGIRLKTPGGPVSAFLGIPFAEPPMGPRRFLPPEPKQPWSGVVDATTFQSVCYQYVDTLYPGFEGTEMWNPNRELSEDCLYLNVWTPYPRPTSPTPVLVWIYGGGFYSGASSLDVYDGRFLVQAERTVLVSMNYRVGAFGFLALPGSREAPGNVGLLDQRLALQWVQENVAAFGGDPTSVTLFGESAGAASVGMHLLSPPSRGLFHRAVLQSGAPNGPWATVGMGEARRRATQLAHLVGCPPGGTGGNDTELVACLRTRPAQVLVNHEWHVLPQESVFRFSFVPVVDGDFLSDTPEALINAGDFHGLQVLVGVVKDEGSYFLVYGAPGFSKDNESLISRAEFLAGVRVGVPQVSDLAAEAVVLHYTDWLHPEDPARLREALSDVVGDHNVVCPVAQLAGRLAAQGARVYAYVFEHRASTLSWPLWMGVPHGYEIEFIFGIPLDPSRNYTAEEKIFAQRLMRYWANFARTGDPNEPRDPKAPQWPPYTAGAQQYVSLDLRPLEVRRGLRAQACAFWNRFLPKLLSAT
plasma butyrylcholinesterase, sequence (P06276 29-602): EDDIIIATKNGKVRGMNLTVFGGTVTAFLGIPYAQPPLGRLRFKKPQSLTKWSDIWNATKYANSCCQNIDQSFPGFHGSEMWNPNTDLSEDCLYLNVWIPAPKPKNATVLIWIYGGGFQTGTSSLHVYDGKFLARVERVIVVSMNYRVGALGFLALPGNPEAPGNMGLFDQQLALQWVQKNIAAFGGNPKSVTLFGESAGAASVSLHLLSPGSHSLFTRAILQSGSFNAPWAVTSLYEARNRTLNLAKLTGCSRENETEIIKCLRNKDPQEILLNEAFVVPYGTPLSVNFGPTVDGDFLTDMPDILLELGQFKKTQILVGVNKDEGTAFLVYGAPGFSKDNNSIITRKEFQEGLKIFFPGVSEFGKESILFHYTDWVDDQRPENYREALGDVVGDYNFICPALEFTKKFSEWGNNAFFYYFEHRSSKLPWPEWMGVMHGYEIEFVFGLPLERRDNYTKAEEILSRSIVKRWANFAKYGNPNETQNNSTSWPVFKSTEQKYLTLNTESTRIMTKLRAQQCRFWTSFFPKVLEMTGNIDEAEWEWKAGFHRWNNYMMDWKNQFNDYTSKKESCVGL

CC(=O)SC(C)C[N+](C)(C)C (stereo not drawn) [acetyl-β-methylthiocholine]
percent of Vmax produced by substrate concentration ([1]; 1.0 mM substrate, approximately 10 times Km, without substrate inhibition): about 91%
Acetylcholinesterase Vmax [1, 18]: 9.2552 (SEM=0.6386) ×10-6 moles/gram of erythrocytes/min
erythrocyte acetylcholinesterase Vmax [1, 18]: 9.2552 (SEM=0.6386) ×10^-6 moles/gm/min

CS(=O)(=O)F [methanesulfonyl fluoride]
inhibition at 0.14 mg/kg ([2]; 0.14 mg/kg oral three times per week, Experiment III, spread SEM in %): 85.3%
inhibition at 0.18 mg/kg ([2]; 0.18 mg/kg oral three times per week, Experiment III, spread SEM in %): 89.5%
estimated minimum therapeutic dose ([2]; 18% inhibition of remaining active enzyme per dose, Experiment I): 0.11 mg/kg
refined estimation of the (minimum) therapeutic dose ([2]; 18% inhibition of remaining enzyme, three times per week, Experiments I and II): 0.14 mg/kg
dose-response correlation r ([2]; Experiment II, FIG. 6, least squares linear regression): +0.8956
dose/response relationship ([2]; Experiment II, FIG. 6, oral): orderly and consistent dose/response relationship
dose required to produce 18% inhibition of acetylcholinesterase remaining active ([2]; Experiment II, oral): 0.143 mg/kg
selectivity for erythrocyte acetylcholinesterase ([2]; FIG. 4, Experiment I oral doses, versus plasma butyrylcholinesterase): strongly selective for erythrocyte acetylcholinesterase
recovery kinetics of erythrocyte acetylcholinesterase ([2]; FIG. 5, 80 days after treatment ceased): follows pseudo-first order kinetics; also recorded: strictly linear plot of LOG10 [%INH] against time
half-life for recovery of erythrocyte acetylcholinesterase ([2]; FIG. 5, Experiment I, 80 days after last dose): 43 days
activity by oral administration (erythrocyte acetylcholinesterase inhibition) ([2]; oral, Experiment I, FIG. 1): active by oral administration
dose-response of erythrocyte acetylcholinesterase inhibition ([2]; oral, Experiment I, FIG. 1, one observation at each dose): orderly dose-response curve
inhibition of erythrocyte acetylcholinesterase ([2]; patients treated up to 8 weeks): 85-90%
correlation coefficient r, LOG10 [% inhibition] against time ([2]; recovery of erythrocyte acetylcholinesterase, FIG. 5, least squares linear regression): -0.9254
inhibition of plasma butyrylcholinesterase [3]: virtually no inhibition of plasma butyrylcholinesterase
percent improvement on the ADAS-COG ([4]; 6 point reduction from 30 errors): 20%
mean improvement on the ADAS-COG ([4]; Experiment III, mean of 30 errors at beginning): 6 points
cognitive performance (reduction in errors on the ADAS-COG) ([4]; FIG. 7, during methanesulfonyl fluoride treatment): substantial improvement of cognitive performance
duration of improvement after treatment ([4]; after/through 8 weeks of placebo treatment): still clearly present after 8 weeks of placebo treatment; also recorded: maintained through 8 weeks of placebo
efficacy compared with tacrine in enhancing cognitive functions in SDAT ([4]; in vivo): significantly greater efficacy than tacrine
improvement on ADAS-COG maintained throughout 8 additional weeks of placebo ([4]; methanesulfonyl fluoride first, then placebo): about 6 points
ADAS-COG change in 8 weeks compared to placebo ([4]; p<0.01 one-tailed, paired t-test and Wilcoxon): significant improvement compared to the placebo
correlation of ADAS-COG improvement with baseline ADAS-COG errors ([4]; p<0.05, N=15): +0.6
Mini-Mental State score change in 8 weeks compared to placebo [5]: significant improvement compared to the placebo
mean CIBIC [6]: 2.98 (SD=1.13)
mean improvement in Global Deterioration Score ([7]; 16 weeks versus baseline, p<0.01 t-test one-tailed, spread SEM): 1.3 (SEM=0.33)
mean Global Deterioration Score at the end of the protocol ([7]; end of 16 week protocol, baseline 4.4 (SEM=0.21)): 3.1
inhibition in brain versus peripheral tissues [8]: much more inhibition in brain than peripheral tissues
pharmacological activity if injected intramuscularly (rats and monkeys): pharmacologically active
continued reaction against acetylcholinesterase (acetylcholinesterase [9]): continues to react against acetylcholinesterase even after it is removed from the aqueous environment of the membranes in vitro
mechanism and duration of acetylcholinesterase inhibition (acetylcholinesterase [10]): long-acting irreversible inhibitor of acetylcholinesterase
selectivity for acetylcholinesterase in comparison to butyrylcholinesterase (acetylcholinesterase [10]): high selectivity
enhancement of animal memory (animal memory): strong methanesulfonyl fluoride-induced enhancement of animal memory without toxicity
inhibition of brain acetylcholinesterase [11]: 80-90%
solubility in lipids ([12]; lipids): highly soluble in lipids
chemical stability in water solutions ([12]; water solutions): would degrade in water solutions
concentration in the peripheral blood [13]: drops within hours
adverse events ([14]; 0.14 mg/kg, first 7 patients): no adverse events
clinical blood profiles, especially transaminases ([14]; Experiment III): no changes in clinical blood profiles
nausea, vomiting, diarrhea, or other cholinergic side effects ([14]; Experiment III): no patients suffered
signs of toxicity at the doses used ([14]; Experiment III): no signs of methanesulfonyl fluoride toxicity
adverse events related to drug treatment ([14]; Experiment III, 0.14-0.18 mg/kg): no adverse events
patients leaving the protocol because of a drug-related adverse event ([14]; Experiment III, 21 enrolled, 15 completed): No patients
peripheral cholinergic or other toxic effects ([14]; doses sufficient for treatment of dementia): not accompanied by peripheral cholinergic or other toxic effects
hematocrit changes ([14]; patients, up to 8 weeks, 85-90% inhibition of erythrocyte acetylcholinesterase): no changes in hematocrit
adverse events in patients with known tacrine sensitivity ([14]; two patients with prior tacrine adverse effects): Neither of these patients with known sensitivities experienced adverse events
tolerability ([15]; 0.03-0.18 mg/kg oral, Experiment II): All doses used were tolerated well
safety at range of doses expected to produce a therapeutic effect ([15]; Experiments I and II): safe at the range of doses expected to produce a therapeutic effect
oral absorption ([15]; oral, Experiment II): consistently absorbed after oral administration
changes in the clinical blood analyses [16]: no changes of any type in the clinical blood analyses
cholinergic effects (e.g., diarrhea, vomiting, nausea) [16]: no cholinergic effects

COP(=O)(OC)C(O)C(Cl)(Cl)Cl (centres unmarked) [metrifonate, reference compound]
selectivity for acetylcholinesterase in comparison to butyrylcholinesterase (acetylcholinesterase [10]): do not show this high degree of selectivity

CNC(=O)Oc1ccc2c(c1)[C@]1(C)CCN(C)[C@@H]1N2C [physostigmine, reference compound]
selectivity for acetylcholinesterase in comparison to butyrylcholinesterase (acetylcholinesterase [10]): do not show this high degree of selectivity

Nc1c2c(nc3ccccc13)CCCC2 [tacrine]
mean improvement on the ADAS-COG (SDAT patients; high dose tacrine, patients who could tolerate): 2 points
patients who could tolerate (SDAT patients; high dose tacrine): 40%
patients who failed to complete the protocol because of drug-related adverse events (SDAT patients; high dose tacrine): about 60%
adverse events related to treatment (SDAT patients; in vivo): cholinergic side effects (nausea, vomiting, diarrhea, etc.) and liver toxicity
prior adverse effects ([17]; one patient each): liver toxicity; also recorded: vomiting
highest tolerated dose (limited by vomiting) ([17]; one patient, an ineffective dose): 60 mg/day
